Experimental data: patent US20250122174A1 (Shenzhen Yuanli Shenwan Innovative Medicine Co., Ltd., priority 2022, published 2025)

Each molecule was assayed against HPK1 (Homo sapiens (Human), UniProt Q92918) (assay: HPK1 Inhibition Assay (ADP-Glo kinase assay)). Conditions: ATP 10 μM.
Format: biochemical
How it was run: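 ADP-Glo luminescence read-out after 1 h room-temperature kinase reaction with 10 μM ATP and 0.1 μg/ml MBP. Recombinant human HPK1 at 7.5 ng/μl; buffer 40 mM Tris pH 7.5, 20 mM MgCl2. Compounds serially diluted 5-fold over 10 points from 10 mM DMSO stock.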

Sequence of HPK1 (Q92918 1-346 limits assumed): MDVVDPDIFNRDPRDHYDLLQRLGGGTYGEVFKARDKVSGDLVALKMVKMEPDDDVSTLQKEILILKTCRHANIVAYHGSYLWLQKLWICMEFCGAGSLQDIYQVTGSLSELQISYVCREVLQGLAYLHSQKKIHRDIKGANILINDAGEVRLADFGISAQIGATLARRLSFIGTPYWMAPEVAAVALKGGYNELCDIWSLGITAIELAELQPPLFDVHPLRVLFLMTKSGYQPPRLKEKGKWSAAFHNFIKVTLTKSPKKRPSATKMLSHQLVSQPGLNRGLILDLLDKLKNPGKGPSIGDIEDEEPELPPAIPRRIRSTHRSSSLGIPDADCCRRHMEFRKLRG

| IC50 | SMILES |
| --- | --- |
| < 100 nM | CC1(C)CN(c2c(NC(=O)c3ccc(=O)n(-c4c(F)cccc4F)n3)ccc3c2cnn3[C@H]2CCOC2)C[C@H]1N [Example 270, N-(4-((S)-4-amino-3,3-dimethylpyrrolidin-1-yl)-1-((S)-tetrahydrofuran-3-yl)-1H-indazol-5-yl)-1-(2,6-difluorophenyl)-6-oxo-1,6-dihydropyridazine-3-carboxamide] |
| < 100 nM | CC(C)c1nc2c(N3CCC4(CCNC4)C3)c(NC(=O)c3ccc(=O)n(-c4c(F)cccc4F)n3)ccc2n1C (stereo not drawn) [Example 136, 1-(2,6-difluorophenyl)-N-(2-isopropyl-1-methyl-4-(2,7-diazaspiro[4.4]nonan-2-yl)-1H-benzo[d]imidazol-5-yl)-6-oxo-1,6-dihydropyridazine-3-carboxamide] |

More lines, now with the values behind:

| SMILES | IC50 |
| --- | --- |
| CC(C)n1cc2c(N3CC[C@@](C)(N)C3)c(NC(=O)c3ccc(=O)n(-c4c(F)cccc4F)n3)ccc2n1 [Example 220, (R)—N-(4-(3-amino-3-methylpyrrolidin-1-yl)-2-isopropyl-2H-indazol-5-yl)-1-(2,6-difluorophenyl)-6-oxo-1,6-dihydropyridazine-3-carboxamide] | < 100 nM |
| CC(C)n1ncc2c(N3CC[C@@H](N)C3)c(NC(=O)c3ccc(=O)n(-c4c(F)cccc4F)n3)cc(F)c21 [Example 188, (R)-N-(4-(3-aminopyrrolidin-1-yl)-7-fluoro-1-isopropyl-1H-indazol-5-yl)-1-(2,6-difluorophenyl)-6-oxo-1,6-dihydropyridazine-3-carboxamide] | < 100 nM |
| CC(C)(C)n1cc2c(N3C[C@@H](N)C4(CC4)C3)c(NC(=O)c3ccc(=O)n(-c4c(F)cccc4F)n3)ccc2n1 [Example 242, (S)-N-(4-(7-amino-5-azaspiro[2.4]heptan-5-yl)-2-(tert-butyl)-2H-indazol-5-yl)-1-(2,6-difluorophenyl)-6-oxo-1,6-dihydropyridazine-3-carboxamide] | < 100 nM |
| CC(C)n1nc(Cl)c2c(N3C[C@@H](C)[C@@H](N)C3)c(NC(=O)c3ccc(=O)n(-c4c(F)cccc4F)n3)ccc21 [Example 191, N-(4-((3R,4R)-3-amino-4-methylpyrrolidin-1-yl)-3-chloro-1-isopropyl-1H-indazol-5-yl)-1-(2,6-difluorophenyl)-6-oxo-1,6-dihydropyridazine-3-carboxamide] | < 100 nM |
